Peptide text beside a SMILES is read from it.
System: Botrytis cinerea (B05.10)
Test: Resazurin antifungal assay of 180 alpha-factor peptide variants towards Botrytis (Example 2)
Assay type: cell-based
Conditions: % inhibition of fungal growth, Botrytis conidia, resazurin; for Inhibition at 50 μM: peptide 50 μM; for Inhibition at 100 μM: peptide 100 μM
Method in brief: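 Resazurin viability read-out (570/620 nm fluorescence) after a 24 h, 20° C incubation of B05.10 conidia, 5000 per well, with peptide at final 10-100 μM. Growth inhibition (%) was derived by subtracting conidia-only fluorescence; four replicates per treatment.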

Row | Compound | Inhibition at 50 μM [%] | Inhibition at 100 μM [%]
1 | CSCC[C@H](NC(=O)CNC(=O)[C@H](CCC(N)=O)NC(=O)CNC(=O)[C@@H]1CCCN1C(=O)[C@H](CCCCN)NC(=O)[C@H](Cc1ccccc1)NC(=O)[C@H](CCC(=O)O)NC(=O)[C@H](CC(C)C)NC(=O)[C@H](CC(=O)O)NC(=O)[C@H](Cc1c[nH]cn1)NC(=O)[C@@H]1CCCN1)C(=O)N[C@@H](Cc1ccc(O)cc1)C(=O)O [compound 126] (H-PHDLEFKPGQGMY-OH; N-terminus and C-terminus assumed) | <90 | <90
2 | CC[C@H](C)[C@H](NC(=O)[C@H](CO)NC(=O)[C@H](CCCCN)NC(=O)[C@@H](N)Cc1c[nH]c2ccccc12)C(=O)N[C@@H](CC(N)=O)C(=O)N[C@@H](Cc1ccccc1)C(=O)N[C@@H](CCCCN)C(=O)N1CCC[C@H]1C(=O)NCC(=O)N[C@@H](CCC(N)=O)C(=O)N1CCC[C@H]1C(=O)N[C@@H](CCSC)C(=O)N[C@@H](Cc1ccc(O)cc1)C(=O)O [compound 127] (H-WKSINFKPGQPMY-OH; N-terminus and C-terminus assumed) | <90 | <90
3 | CSCC[C@H](NC(=O)[C@@H]1CCCN1C(=O)[C@H](CCC(N)=O)NC(=O)CNC(=O)[C@@H]1CCCN1C(=O)[C@H](CC(=O)O)NC(=O)[C@H](Cc1ccccc1)NC(=O)[C@H](CCC(=O)O)NC(=O)[C@@H](NC(=O)[C@H](Cc1c[nH]c2ccccc12)NC(=O)[C@H](Cc1c[nH]cn1)NC(=O)[C@@H]1CCCN1)C(C)C)C(=O)N[C@@H](Cc1ccc(O)cc1)C(=O)O [compound 128] (H-PHWVEFDPGQPMY-OH; N-terminus and C-terminus assumed) | <90 | <90
4 | CSCC[C@H](NC(=O)[C@@H]1CCCN1C(=O)[C@H](CCC(N)=O)NC(=O)CNC(=O)[C@@H]1CCCN1C(=O)[C@H](Cc1c[nH]cn1)NC(=O)[C@H](CC(C)C)NC(=O)[C@H](CCC(=O)O)NC(=O)[C@H](CC(C)C)NC(=O)CNC(=O)[C@H](CCC(N)=O)NC(=O)[C@@H](N)Cc1c[nH]c2ccccc12)C(=O)N[C@@H](Cc1ccc(O)cc1)C(=O)O [compound 129] (H-WQGLELHPGQPMY-OH; N-terminus and C-terminus assumed) | <90 | <90
5 | CSCC[C@H](NC(=O)[C@@H]1CCCN1C(=O)[C@H](CO)NC(=O)CNC(=O)[C@@H]1CCCN1C(=O)[C@H](CCCCN)NC(=O)[C@H](CC(C)C)NC(=O)[C@@H](NC(=O)[C@H](CC(C)C)NC(=O)[C@@H](NC(=O)[C@H](CCC(=O)O)NC(=O)[C@@H](N)Cc1c[nH]c2ccccc12)C(C)C)[C@@H](C)O)C(=O)N[C@@H](Cc1ccc(O)cc1)C(=O)O [compound 130] (H-WEVLTLKPGSPMY-OH; N-terminus and C-terminus assumed) | <90 | <90
6 | CC[C@H](C)[C@H](NC(=O)[C@H](CC(C)C)NC(=O)[C@H](Cc1c[nH]cn1)NC(=O)[C@@H]1CCCN1)C(=O)N[C@@H](CCC(N)=O)C(=O)N[C@@H](CC(C)C)C(=O)NCC(=O)N[C@@H](CC(C)C)C(=O)NCC(=O)N[C@@H](CCC(N)=O)C(=O)N1CCC[C@H]1C(=O)N[C@@H](CCSC)C(=O)N[C@@H](Cc1ccc(O)cc1)C(=O)O [compound 131] (H-PHLIQLGLGQPMY-OH; N-terminus and C-terminus assumed) | <90 | <90
7 | CSCC[C@H](NC(=O)[C@H](Cc1c[nH]cn1)NC(=O)[C@@H]1CCCN1)C(=O)N[C@H](C(=O)N[C@@H](CCCNC(=N)N)C(=O)N[C@@H](CC(C)C)C(=O)N[C@@H](CCCCN)C(=O)N1CCC[C@H]1C(=O)NCC(=O)N[C@@H](CCC(N)=O)C(=O)N1CCC[C@H]1C(=O)N[C@@H](CCSC)C(=O)N[C@@H](Cc1ccc(O)cc1)C(=O)O)C(C)C [compound 132] (H-PHMVRLKPGQPMY-OH; N-terminus and C-terminus assumed) | <90 | 94.13
